Results reported in patent publication US6943183B2 (Pfizer Inc, priority 2000, dated 2005).
Counter-ions that a name gives are not always drawn.

biological target: T1, SF9 affinity purified rat FPT (Rattus norvegicus, UniProt Q02293+Q04631); test: PFT (FPT) inhibitory activity assay, radiolabeled farnesyl pyrophosphate and biotinyl peptide, streptavidin beads; format: biochemical; details: HEPES buffer pH 7.4, 30° C., 30 minutes; read-out: FTase IC50
T1 construct: made in house; host or cells: Sf9 insect cells
Method in brief: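 Rat FPT expressed in SF9 cells was incubated 30 minutes at 30° C. with compound (in 10% DMSO), radiolabeled farnesyl pyrophosphate and biotinylated peptide. Buffer: HEPES pH 7.4, ZnCl2 20 μM, MgCl2 and DTT 5 mM each, 0.1% PEG 8000, 5 mM potassium phosphate (also run without phosphate). Product captured on streptavidin beads in magnesium acetate/H3PO4 stop buffer.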

SMILES	IC50 [nM]
CC[C@H](C)CNC(=O)c1ccccc1SCc1c(O[C@H](Cn2ccnc2)c2ccccc2)ccc2c1CCCC2=O [Compound 250, 2-{[(2-{[(1S)-2-(1H-Imidazol-1-yl)-1-phenylethyl]oxy}-5-oxo-5,6,7,8-tetrahydro-1-naphthalenyl)methyl]sulfanyl}-N-[(2S)-2-1-methylbutyl]benzamide]	0.2
CCC(CC)OCc1c(O[C@H](Cn2ccnc2)c2ccccc2)ccc2c1CCCC2=O [Compound 19c, 5-(1-Ethyl-propoxymethyl)-6-((S)-2-imidazol-1-yl-1-phenyl-ethoxy)-3,4-dihydro-2H-naphthalen-1-one]	1.4
O=C1CCCc2c1ccc(O[C@H](Cn1ccnc1)c1ccccc1)c2C[S+]([O-])c1ccccc1 (stereo partly shown) [Compound 2]	3
O=C1CCCc2c1ccc(O[C@H](Cn1ccnc1)c1ccccc1)c2CCc1ccsc1 [Compound 44a, 6-((S)-2-Imidazol-1-yl-1-phenyl-ethoxy)-5-(2-thiophen-3-yl-ethyl)-3,4-dihydro-2H-naphthalen-1-one]	0.87
COCCNC(=O)c1cccc(SCc2c(O[C@H](Cn3ccnc3)c3ccccc3)ccc3c2CCCC3=O)c1 [Compound 259, 3-{[(2-{[(1S)-2-(1H-Imidazol-1-yl)-1-phenylethyl]oxy}-5-oxo-5,6,7,8-tetrahydro-1-naphthalenyl)methyl]sulfanyl}-N-(2-methoxyethyl)benzamide]	0.2
O=C1CCCc2c1ccc(O[C@H](Cn1ccnc1)c1ccccc1)c2-c1ccoc1 [Compound 36]	7
CC(C)OCc1c(O[C@H](Cn2ccnc2)c2ccccc2)ccc2c1CCCC2=O [Compound 15, hydrochloride]	0.2
COC(=O)CCc1c(O[C@H](Cn2ccnc2)c2ccccc2)ccc2c1CCCC2=O [Compound 31, Methyl 3-[2-((1S)-2-imidazolyl-1-phenylethoxy)-5-oxo-6,7,8-trihydronaphthyl]propanoate]	10
O=C1CCC(c2ccccc2)c2cc(OC(Cn3ccnc3)c3ccccc3)ccc21 (racemic) [Compound 48, (±)-6-(2-imidazolyl-O-phenylethoxy)-4-phenyl-2,3,4-trihydronaphthalen-1-one]	35
CSCC[C@H](NC(=O)OC(C)(C)C)C(=O)NCc1c(O[C@H](Cn2ccnc2)c2ccccc2)ccc2c1CCCC2=O [Compound 42j, ((S)-1-{[2-((S)-2-Imidazol-1-yl-1-phenyl-ethoxy)-5-oxo-5,6,7,8-tetrahydro-napthalen-1-ylmethyl]-carbamoyl}-3-methylsulfanyl-propyl)-carbamic acid tert-butyl ester]	4.4
CC[C@H](C)CNC(=O)c1cccc(SCc2c(O[C@H](Cn3ccnc3)c3ccccc3)ccc3c2CCCC3=O)c1 [Compound 252, 3-{[(2-{[(1S)-2-(1H-Imidazol-1-yl)-1-phenylethyl]oxy}-5-oxo-5,6,7,8-tetrahydro-1-naphthalenyl)methyl]sulfanyl}-N-[(2S)-2-methylbutyl]benzamide]	0.2
O=C1CCCc2c1ccc(O[C@H](Cn1ccnc1)c1cccnc1)c2CCc1ccccn1 [Compound 63c]	0.3
CCC(Cn1ccnc1)Oc1ccc2c(c1CS(=O)(=O)c1ccccc1)CCCC2=O (stereo not shown) [Compound 63n, 6-[1-(1H-Imidazol-1-ylmethyl)propoxy]-5-[(phenylsulfonyl)methyl]-3,4-dihydro-1(2H)-naphthalenone]	7
CC[C@H](C)CNC(=O)c1ccc(SCc2c(O[C@H](Cn3ccnc3)c3ccccc3)ccc3c2CCCC3=O)cc1 [Compound 251, 4-{[(2-{[(1S)-2-(1H-Imidazol-1-yl)-1-phenylethyl]oxy}-5-oxo-5,6,7,8-tetrahydro-1-naphthalenyl)methyl]sulfanyl}-N-[(2S)-2-methylbutyl]benzamide]	0.2

Other lines, results leading:

IC50 [nM]	SMILES
4	COC(=O)c1cccc(SCc2c(O[C@H](Cn3ccnc3)c3ccccc3)ccc3c2CCCC3=O)c1 [Compound 158, Methyl 3-{[(2-{[(1S)-2-(1H-Imidazol-1-yl)-1-phenylethyl]oxy}-5-oxo-5,6,7,8-tetrahydro-1-naphthalenyl)methyl]sulfanyl}benzoate]
16	O=C1CCCc2c1ccc(O[C@H](Cn1ccnc1)c1ccccc1)c2CNc1ccc2[nH]ncc2c1 [Compound 145]
1.5	O=C1CCCc2c1ccc(O[C@H](Cn1ccnc1)c1ccccc1)c2CNS(=O)(=O)c1cccc(Cl)c1 [Compound 42e, 3-Chloro-N-[2-((S)-2-imidazol-1-yl-1-phenyl-ethoxy)-5-oxo-5,6,7,8-tetrahydro-naphthalen-1-ylmethyl]-benzenesulfonamide; compound with trifluoro-acetic acid]
0.35	COc1ccc([S+]([O-])Cc2c(O[C@H](Cn3ccnc3)c3ccccc3)ccc3c2CCCC3=O)cc1 (stereo partly drawn) [Compound 141, 6-((S)-2-Imidazol-1-yl-1-phenyl-ethoxy)-5-(4-methoxy-benzenesulfinylmethyl)-3,4-dihydro-2H-napthalen-1-one]
0.2	O=C(NC1CC1)c1cccc(S(=O)(=O)Cc2c(O[C@H](Cn3ccnc3)c3ccccc3)ccc3c2CCCC3=O)c1 [Compound 224, N-Cyclopropyl-3-{[(2-{[(1S)-2-(1H-imidazol-1-yl)-1-phenylethyl]oxy}-5-oxo-5,6,7,8-tetrahydro-1-naphthalenyl)methyl]sulfonyl}benzamide]
0.2	O=C(NCc1ccco1)c1cccc(S(=O)(=O)Cc2c(O[C@H](Cn3ccnc3)c3ccccc3)ccc3c2CCCC3=O)c1 [Compound 230, N-(2-Furylmethyl)-3-{[(2-{[(1S)-2-(1H-imidazol-1-yl)-1-phenylethyl]oxy}-5-oxo-5,6,7,8-tetrahydro-1-naphthalenyl)methyl]sulfonyl}benzamide]
1	CC(C)(C)c1cccc(OCc2c(O[C@H](Cn3ccnc3)c3ccccc3)ccc3c2CCCC3=O)c1 [Compound 67]
7	O=C(O)CCNC(=O)c1ccccc1S(=O)(=O)Cc1c(O[C@H](Cn2ccnc2)c2ccccc2)ccc2c1CCCC2=O [Compound 167, N-2-{[(2-{[(1S)-2-(1H-Imidazol-1-yl)-1-phenylethyl]oxy}-5-oxo-5,6,7,8-tetrahydro-1-naphthalenyl)methyl]sulfonyl}benzoyl-β-alanine]
3.5	COC(=O)c1ccccc1S(=O)(=O)NCc1c(O[C@H](Cn2ccnc2)c2ccccc2)ccc2c1CCCC2=O [Compound 42c]
4	CCOC(=O)C(C)NC(=O)c1ccccc1S(=O)(=O)Cc1c(O[C@H](Cn2ccnc2)c2ccccc2)ccc2c1CCCC2=O (stereo partly drawn) [Compound 185, Ethyl 2-[(2-{[(2-{[(1S)-2-(1H-Imidazol-1-yl)-1-phenylethyl]oxy}-5-oxo-5,6,7,8-tetrahydro-1-naphthalenyl)methyl]sulfonyl}benzoyl)amino]propanoate]
4	O=C1CCCc2c1ccc(O[C@H](Cn1ccnc1)c1ccccc1)c2CNS(=O)(=O)c1ccc2ccccc2c1 [Compound 42f, Naphthalene-2-sulfonic acid [2-((S)-2-imidazol-1-yl-1-phenyl-ethoxy)-5-oxo-5,6,7,8-tetrahydro-naphthalen-1-ylmethyl]-amide; compound with trifluoro-acetic acid]
0.4	O=C1CCCc2c1ccc(O[C@H](Cn1ccnc1)c1ccccc1)c2CCc1ccccn1 [Compound 24, 6-((1S)-2-Imidazolyl-1-phenylethoxy)-5-(2-(2-pyridyl)ethyl)-2,3,4-trihydronaphthalen-1-one]
11	O=C1CCCc2c1ccc(O[C@H](Cn1ccnc1)c1ccccc1)c2-c1ccc2ccccc2c1 [Compound 23, 6-((1S)-2-Imidazolyl-1-phenylethoxy)-5-(2-naphthyl)-2,3,4-trihydronaphthalen-1-one]
0.2	O=C(NCc1ccco1)c1ccc(SCc2c(O[C@H](Cn3ccnc3)c3ccccc3)ccc3c2CCCC3=O)cc1 [Compound 238, N-(2-Furylmethyl)-4-{[(2-{[(1S)-2-(1H-imidazol-1-yl)-1-phenylethyl]oxy}-5-oxo-5,6,7,8-tetrahydro-1-naphthalenyl)methyl]sulfanyl}benzamide]
5	O=C(O)c1cccc(SCc2c(O[C@H](Cn3ccnc3)c3ccccc3)ccc3c2CCCC3=O)c1 [Compound 163, 3-{[(2-{[(1S)-2-(1H-Imidazol-1-yl)-1-phenylethyl]oxy}-5-oxo-5,6,7,8-tetrahydro-1-naphthalenyl)methyl]sulfanyl}benzoic Acid]
0.8	CCOc1ccccc1OCc1c(O[C@H](Cn2ccnc2)c2ccccc2)ccc2c1CCCC2=O [Compound 78, 6-((1S)-2-Imidazolyl-4-phenylethoxy)-5-[(2-ethoxyphenoxy)methyl]-2,3,4-trihydronaphthalen-1-one]
0.2	CC[C@H](C)CNC(=O)c1ccc(S(=O)(=O)Cc2c(O[C@H](Cn3ccnc3)c3ccccc3)ccc3c2CCCC3=O)cc1 [Compound 247, 4-{[(2-{[(1S)-2-(1H-Imidazol-1-yl)-1-phenylethyl]oxy}-5-oxo-5,6,7,8-tetrahydro-1-naphthalenyl)methyl]sulfonyl}-N-[(2S)-2-methylbutyl]benzamide]
0.65	O=C1CCCc2c1ccc(O[C@H](Cn1ccnc1)c1ccccc1)c2NC(=O)c1nccc2ccccc12 [Compound 40a, Isoquinoline-1-carboxylic acid [2-((S)-2-imidazol-1-yl-1-phenyl-ethoxy)-5-oxo-5,6,7,8-tetrahydro-naphthalen-1-yl]-amide]
0.3	O=C(NCc1ccco1)c1cccc(SCc2c(O[C@H](Cn3ccnc3)c3ccccc3)ccc3c2CCCC3=O)c1 [Compound 239, N-(2-Furylmethyl)-3-{[(2-{[(1S)-2-(1H-imidazol-1-yl)-1-phenylethyl]oxy}-5-oxo-5,6,7,8-tetrahydro-1-naphthalenyl)methyl]sulfanyl}benzamide]
15	O=C1CCCc2c1ccc(O[C@H](Cn1ccnc1)c1ccccc1)c2CSCc1ccc(Cl)c(Cl)c1 [Compound 153, 5-(3,4-Dichloro-benzylsulfanylmethyl)-6-((1S)-2-imidazol-1-yl-1-phenyl-ethoxy)-3,4-dihydro-2H-naphthalen-1-one]
